Where a SMILES comes first, the peptide text is derived from it. Bridges are numbered along the chain shown (N, C = ends). [ ]: non-standard residue; d: D form. 1Nal = N[C@@H](Cc1cccc2ccccc12)C(=O)O; Nle = CCCC[C@H](N)C(=O)O
Columns and labels:
MC4-R [1] = molecular target: T1, MC4-R (Homo sapiens, UniProt P32245); assay: Competitive inhibition binding assay using [I125]-NDP-α-MSH, hMC4-R; settings: radioligand [I125]-NDP-α-MSH, HEK-293 membranes; read-out: Ki (NDP-α-MSH) MC4-R
T1 construct: expressed in transfected cells; host or cells: HEK-293
T1 sequence (P32245 whole entry): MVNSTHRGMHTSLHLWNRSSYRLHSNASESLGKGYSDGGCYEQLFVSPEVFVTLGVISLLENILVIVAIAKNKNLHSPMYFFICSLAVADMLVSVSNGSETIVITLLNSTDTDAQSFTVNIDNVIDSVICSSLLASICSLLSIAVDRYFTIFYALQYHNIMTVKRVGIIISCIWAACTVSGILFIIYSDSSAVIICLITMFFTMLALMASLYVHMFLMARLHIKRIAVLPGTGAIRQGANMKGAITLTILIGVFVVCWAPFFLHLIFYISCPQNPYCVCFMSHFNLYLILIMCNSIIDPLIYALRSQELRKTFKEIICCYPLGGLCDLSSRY
Protocol: (§1) The assay tube also contained a chosen concentration of the test peptide of this invention, typically a 1 μM concentration, for determining its efficacy in inhibiting the binding of [I^125]NDP-α-MSH to the receptor.
(§2) The assay mixture was incubated for 60 minutes at 37° C., then filtered and the membranes washed three times with ice cold phosphate buffered saline. The filter was dried and counted in a gamma counter for remaining radioactivity bound to the membranes. 100% specific binding was defined as the difference in radioactivity (cpm) bound to cell membranes in the absence and presence of 1 μM NDP-α-MSH. […] Each assay was conducted in triplicate. The Ki (nM) of certain peptides of the invention were determined using similar assay protocols and testing peptides over a wider dose range.

MC3-R [2] = molecular target: T2, MC3-R (Homo sapiens, UniProt P41968); assay: Competitive inhibition Ki (AgRP), MC3-R; type: binding; settings: AgRP as competing ligand
T2 construct: expressed in transfected cells; host or cells: HEK-293
T2 sequence (P41968 whole entry): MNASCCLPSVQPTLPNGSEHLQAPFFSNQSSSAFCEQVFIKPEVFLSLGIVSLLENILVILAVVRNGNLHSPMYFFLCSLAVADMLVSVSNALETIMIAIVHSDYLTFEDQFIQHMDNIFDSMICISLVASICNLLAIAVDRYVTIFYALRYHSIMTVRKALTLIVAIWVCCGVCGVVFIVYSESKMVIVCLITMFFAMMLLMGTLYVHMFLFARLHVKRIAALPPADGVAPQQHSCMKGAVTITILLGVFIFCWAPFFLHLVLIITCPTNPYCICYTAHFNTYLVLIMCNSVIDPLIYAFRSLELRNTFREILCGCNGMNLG
Protocol: as §2

MC3-R [3] = molecular target: T2, MC3-R; assay: Competitive inhibition binding assay using [I125]-NDP-α-MSH, hMC3-R; settings: radioligand [I125]-NDP-α-MSH, HEK-293 membranes; read-out: Ki (NDP-α-MSH) MC3-R
Protocol: as §1, §2

hMC5-R = molecular target: T3, hMC5-R (Homo sapiens, UniProt P33032); assay: Competitive inhibition binding assay using [I125]-NDP-α-MSH, hMC5-R; settings: radioligand [I125]-NDP-α-MSH, HEK-293 membranes; read-out: Ki (NDP-α-MSH) MC5-R
T3 construct: expressed in transfected cells; host or cells: HEK-293
T3 sequence (P33032 whole entry): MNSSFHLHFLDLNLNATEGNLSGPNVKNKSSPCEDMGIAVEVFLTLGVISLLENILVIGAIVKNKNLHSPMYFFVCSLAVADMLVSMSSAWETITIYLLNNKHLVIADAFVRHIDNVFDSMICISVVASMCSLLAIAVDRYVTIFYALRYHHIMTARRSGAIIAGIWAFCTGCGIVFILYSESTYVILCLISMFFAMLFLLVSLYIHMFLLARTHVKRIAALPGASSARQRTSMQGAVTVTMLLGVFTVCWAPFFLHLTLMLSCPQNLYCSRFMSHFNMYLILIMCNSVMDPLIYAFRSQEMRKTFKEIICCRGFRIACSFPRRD
Protocol: as §1, §2

male Sprague-Dawley rats = assay: Penile erection induction in male rats; type: in vivo, rat
Protocol: The ability of peptides to induce penile erection (PE) in male rats was evaluated with selected peptides. Male Sprague-Dawley rats weighing 200-250 g were kept on a 12 hour on/off light cycle with food and water ad libitum. All behavioral studies were performed between 10 a.m. and 5 p.m. Groups of 4-8 rats were administered peptides at a variety of doses via an intravenous (IV) route, and may alternatively be administered peptide by an intracerebroventricular (ICV) route. Immediately after treatment, rats were placed into individual polystyrene cages (27 cm long, 16 cm wide, and 25 cm high) for behavioral observation. […] For rats administered peptide by an ICV routes, rats are observed for two hours.
Selected peptides were tested as in Example 5. Peptide was administered by IV routes, and used at dose levels ranging from 1 μg/kg to 1000 μg/kg.

MC4-R [4] = molecular target: T1, MC4-R; assay: Competitive inhibition Ki (AgRP), MC4-R; type: binding; settings: AgRP as competing ligand
hMC3-R (HEK-293 cells) = molecular target: T4, hMC3-R (HEK-293 cells) (Homo sapiens, UniProt P41968); assay: cAMP functional assay for agonist/antagonist status, MC3-R; type: cell-based; settings: for EC50: cAMP accumulation; for agonist/antagonist status as to MC3-R: cAMP assay; for efficacy relative to NDP-α-MSH, MC3-R: cAMP response ratio to NDP-α-MSH
T4 construct: expressed in transfected cells; host or cells: HEK-293
T4 sequence (P41968 whole entry): as the sequence (P41968 whole entry) above
Protocol: (§3) Functional evaluation of peptides at melanocortin receptors was performed by measuring the accumulation of intracellular cAMP in HEK-293 cells expressing hMC3-R, hMC4-R or hMC5-R, and in B-16 mouse melanoma cells expressing MC1-R. Cells suspended in Earle's Balanced Salt Solution containing 10 mM HEPES (pH 7.5), 5 mM MgCl2, 1 mM glutamine, 0.5% albumin and 0.3 mM 3-isobutyl-1-methyl-xanthine, a phosphodiesterase inhibitor, were plated in 96 well plates at a density of 0.5×10^5 cells per well. Cells were incubated with the test peptides in the presence or absence of NDP-α-MSH for 1 hour at 37° C. cAMP levels in the cell lysates were measured using an EIA kit (Amersham). Data analysis and EC50 values were determined using nonlinear regression analysis with Prism Graph-Pad software.
(§4) The agonist/antagonist status with respect to MC1-R, MC4-R and MC5-R of certain peptides of the invention was determined. Antagonistic activity was determined by measuring the inhibition of α-MSH-induced or NDP-α-MSH-induced cAMP levels following exposure to the peptides as in the preceding descriptions.

hMC4-R (HEK-293 cells) = molecular target: T5, hMC4-R (HEK-293 cells) (Homo sapiens, UniProt P32245); assay: cAMP functional assay for agonist/antagonist status, MC4-R; type: cell-based; settings: for EC50: cAMP accumulation; for agonist/antagonist status as to MC4-R: cAMP assay; for efficacy relative to NDP-α-MSH, MC4-R: cAMP response ratio to NDP-α-MSH
T5 construct: expressed in transfected cells; host or cells: HEK-293
T5 sequence (P32245 whole entry): as the sequence (P32245 whole entry) above
Protocol: as §3, §4
Evaluation of the molecules to elicit a functional response in HEK-293 cells expressing hMC4-R for agonistic activity was done by measuring the accumulation of intracellular cAMP following treatment. Confluent HEK-293 cells over-expressing MC4-R receptors were detached by enzyme free cell suspension buffer. Cells were suspended in Earle's Balanced Salt Solution containing 10 mM HEPES (pH 7.5), 1 mM MgCl2, 1 mM glutamine, 0.5% albumin and 0.3 mM 3-isobutyl-1-methyl-[…]. The cells were plated in a 96 well plate at a density of 0.5×10^5 cells per well and pre-incubated for 60 minutes. The cells were then challenged with the test peptides dissolved in dimethylsulfoxide (DMSO) at a concentration range of 0.05-5000 nM in a total assay volume of 200 μL for 1 hour at 37° C. The concentration of DMSO was held at 1% in the assay mixture. NDP-α-MSH was used as the reference agonist. At the end of the incubation period the cells were disrupted by the addition of 50 μL lysis buffer from the cAMP EIA kit (Amersham). Complete rupture of the cells was ensured by pipetting the cells. cAMP levels in the cell lysates were measured after appropriate dilution using the EIA kit (Amersham) method. Data analysis and EC50 values were determined by using nonlinear regression analysis with the Prism Graph-Pad software.

[5] = molecular target: T6, MC1-R (B-16 mouse melanoma cells) (Mus musculus, UniProt Q01727); assay: cAMP functional assay for agonist/antagonist status, MC1-R; type: cell-based; settings: for EC50: cAMP accumulation; for agonist/antagonist status as to MC1-R: cAMP assay; for efficacy relative to NDP-α-MSH, MC1-R: cAMP response ratio to NDP-α-MSH
T6 construct: B-16 mouse melanoma cells (containing MC1-R); endogenous in cells; host or cells: B-16 mouse melanoma cells
T6 sequence (Q01727 whole entry): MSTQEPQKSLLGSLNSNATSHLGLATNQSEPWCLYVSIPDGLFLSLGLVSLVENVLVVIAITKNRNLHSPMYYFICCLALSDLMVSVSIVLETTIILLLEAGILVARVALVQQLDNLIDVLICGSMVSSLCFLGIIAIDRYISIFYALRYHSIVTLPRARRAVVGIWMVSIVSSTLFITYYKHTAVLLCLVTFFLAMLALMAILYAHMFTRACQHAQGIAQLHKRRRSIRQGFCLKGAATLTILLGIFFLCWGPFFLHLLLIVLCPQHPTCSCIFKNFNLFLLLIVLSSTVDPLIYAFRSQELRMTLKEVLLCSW
Protocol: Data analysis and EC50 values were determined using nonlinear regression analysis with Prism Graph-Pad software.
The agonist/antagonist status with respect to MC1-R, MC4-R and MC5-R of certain peptides of the invention was determined.

[6] = 1000 μg/kg IV, groups of 6 rats, one hour observation
[7] = peak dose 300 μg/kg IV, groups of 6 rats

Ki (MC4-R [1]) [nM] | Ki (MC3-R [2]) [nM] | Ki (MC3-R [3]) [nM] | Ki (hMC5-R) [nM] | Ki (MC4-R [4]) [nM] | EC50 (hMC3-R (HEK-293 cells)) [nM] | EC50 (hMC4-R (HEK-293 cells)) [nM] | EC50 [5] [nM] | efficacy relative to NDP-α-MSH, MC1-R [5] | efficacy relative to NDP-α-MSH, MC3-R (hMC3-R (HEK-293 cells)) | efficacy relative to NDP-α-MSH, MC4-R (hMC4-R (HEK-293 cells)) | SMILES | rats exhibiting at least one PE (male Sprague-Dawley rats; [6]) [%] | agonist/antagonist status as to MC3-R (hMC3-R (HEK-293 cells)) | agonist/antagonist status as to MC4-R (hMC4-R (HEK-293 cells)) | agonist/antagonist status as to MC1-R [5] | PE effect at 300 μg/kg compared with 1000 μg/kg (male Sprague-Dawley rats; peak dose 300 μg/kg IV) | mean PEs per rat (male Sprague-Dawley rats; [7]) | rats exhibiting at least one PE (male Sprague-Dawley rats; [7]) [%]
0.34 | 9 | 11 | 5 | 0.15 | 3 | 0.6 |  |  |  |  | CCCC[C@H](NC(C)=O)C(=O)N[C@H]1CC(=O)NCCCC[C@@H](C(=O)NCC)NC(=O)[C@H](Cc2c[nH]c3ccccc23)NC(=O)[C@H](CCCNC(=N)N)NC(=O)[C@@H](Cc2ccccc2)NC(=O)[C@H](Cc2c[nH]cn2)NC1=O [Example 7, Ac-Nle-cyclo(-Asp-His-D-Phe-Arg-Trp-Lys)-NH—CH2—CH3] | 100 | agonist (response ratio compared to NDP-α-MSH of 0.7 and above were classified as full agonists) | agonist (response ratio compared to NDP-α-MSH of 0.7 and above were classified as full agonists) |  |  |  | 
0.27 |  | 8 | 7 | 0.5 | 17 | 0.2 |  |  |  |  | CCCC[C@H](NC(C)=O)C(=O)N[C@H]1CC(=O)NCCCC[C@@H](C(=O)N(C)C)NC(=O)[C@H](Cc2c[nH]c3ccccc23)NC(=O)[C@H](CCCNC(=N)N)NC(=O)[C@@H](Cc2ccccc2)NC(=O)[C@H](Cc2c[nH]cn2)NC1=O [Example 8, Ac-Nle-cyclo(-Asp-His-D-Phe-Arg-Trp-Lys)-N(CH3)2] | 100 | agonist (response ratio compared to NDP-α-MSH of 0.7 and above were classified as full agonists) | agonist (response ratio compared to NDP-α-MSH of 0.7 and above were classified as full agonists) |  |  |  | 
 |  |  |  | 7 | 208 |  | 8 | 0.6 | 1.0 | 0.6 | CCCC[C@H](NC(C)=O)C(=O)N[C@H]1CC(=O)NCCCC[C@@H](C(=O)NCC)NC(=O)[C@H](Cc2cccc3ccccc23)NC(=O)[C@H](CCCNC(=N)N)NC(=O)[C@@H](Cc2ccccc2)NC(=O)[C@H](Cc2c[nH]cn2)NC1=O [Example 9, Ac-Nle-cyclo(-Asp-His-D-Phe-Arg-Nal 1-Lys)-NH—CH2—CH3] | 100 | agonist (response ratio compared to NDP-α-MSH of 0.7 and above were classified as full agonists) | partial agonist (Peptides with a ratio from 0.1 to 0.7 were classified as partial agonists) | partial agonist (Peptides with a ratio from 0.1 to 0.7 were classified as partial agonists) |  |  | 
 | > 1000 |  |  | 50 |  |  | 2300 | 1.1 |  | 0.8 | CCCC[C@H](NC(C)=O)C(=O)N[C@H]1CC(=O)NCCCC[C@@H](C(=O)N(C)C)NC(=O)[C@H](Cc2cccc3ccccc23)NC(=O)[C@H](CCCNC(=N)N)NC(=O)[C@@H](Cc2ccccc2)NC(=O)[C@H](Cc2c[nH]c3ccccc23)NC1=O [Example 10, Ac-Nle-cyclo(-Asp-Trp-D-Phe-Arg-Nal 1-Lys)-N(CH3)2] (Ac-[Nle]DW[dF]R[1Nal]K-NMe2; lactam 2-7 (inferred)) |  | inactive | agonist (response ratio compared to NDP-α-MSH of 0.7 and above were classified as full agonists) | agonist (response ratio compared to NDP-α-MSH of 0.7 and above were classified as full agonists) |  |  | 
 | > 1000 |  |  | 10 | 394 |  | 15 | 0.8 | 1.1 | 0.7 | CCCC[C@H](NC(C)=O)C(=O)N[C@H]1CC(=O)NCCCC[C@@H](C(=O)N(C)C)NC(=O)[C@H](Cc2cccc3ccccc23)NC(=O)[C@H](CCCNC(=N)N)NC(=O)[C@@H](Cc2ccccc2)NC(=O)[C@H](Cc2c[nH]cn2)NC1=O [Example 11, Ac-Nle-cyclo(-Asp-His-D-Phe-Arg-Nal 1-Lys)-N(CH3)2] | 100 | agonist (response ratio compared to NDP-α-MSH of 0.7 and above were classified as full agonists) | agonist (response ratio compared to NDP-α-MSH of 0.7 and above were classified as full agonists) | agonist (response ratio compared to NDP-α-MSH of 0.7 and above were classified as full agonists) | the same |  | 
 | 457 |  |  | 11 | 283 |  | 64 | 0.6 | 1.0 | 0.6 | CCNC(=O)[C@@H]1CCCCNC(=O)C[C@H](NC(C)=O)C(=O)N[C@@H](Cc2c[nH]cn2)C(=O)N[C@H](Cc2ccccc2)C(=O)N[C@@H](CCCNC(=N)N)C(=O)N[C@@H](Cc2c[nH]c3ccccc23)C(=O)N1 [Example 12, Ac-cyclo(-Asp-His-D-Phe-Arg-Trp-Lys)-NH—CH2—CH3] |  | agonist (response ratio compared to NDP-α-MSH of 0.7 and above were classified as full agonists) | partial agonist (Peptides with a ratio from 0.1 to 0.7 were classified as partial agonists) | partial agonist (Peptides with a ratio from 0.1 to 0.7 were classified as partial agonists) |  | 2.5 | 83

— patent US8247530B2, “N-alkylated cyclic peptide melanocortin agonists” (Palatin Technologies, Inc., priority 2005, dated 2012)
